Entries after “also recorded” stand apart in the source; their conditions may differ. One block for each compound: values may come before it.
What was measured:
L. amazonensis = test system: L. amazonensis; set-up: method as in PMID 30817917; conditions: cited from earlier work
L. infantum = test system: L. infantum; set-up: method as in PMID 30817917; conditions: cited from earlier work
[1] = test system: L. donovani promastigotes; assay: Determination of promastigote cellular morphology (light microscopy); type: cell-based, Leishmania donovani; conditions: 25, 50 and 100 μM, 72 h, light microscopy 40×
Method: For the evident of morphological changes, the promastigotes (Fig. 3 (C to L)) were incubated in presence of compound T7, T4 and control Ampho B with the different concentration 25 μM, 50 μM, 100 μM shown in (Fig. 3C to L) were analysed by light microscopy (40×magnification) compared to untreated cells (Fig. 4A).
Fig. 4 Morphological Analysis of promastigote stage cells treated with compound T4 and MTF, compared to the untreated control (A) and DMSO treated control (B). Exponential-phase promastigotes (1 × 10^6 cells per mL) were incubated with 25 μm, 50 μm and 100 μm and analysed by light microscopy (40× magnification). (A) Untreated control (B) DMSO Treated cells (C–E) Ampho B, (F–H) T4 and T7 (I–K) at 25, 50, and 100 μM respectively. Scale bar in all is 10 μm.
Variations in the cellular morphology of Leishmania parasites due to the treatment with compounds T4 and T7 was detected microscopically. Briefly, the promastigotes (1× 10^6 cells per mL) were incubated in the absence or presence of test compounds and MTF and AmphoB for 72 h with different concentrations and observed under 40× objective of a phase-contrast microscope. […] Data were recorded by using NIS-Elements imaging software.[32]

[2] = test system: Human macrophage THP-1 cell line; assay: Cytotoxicity assay on THP-1 cell line (MTT); type: cell-based; conditions: 3.125–100 μM
Method: The cell lines were incubated for 48 h at 37 °C in a CO2 incubator with increasing concentrations of test compounds and viability was ascertained. Each point or bar corresponds to the mean ± SEM of triplicate samples and is representative of one of three independent experiments.
THP-1 human monocytic cells were grown at 37 °C in medium RPMI-1640 (pH 7.4, Sigma-Aldrich, St. Louis, MO, USA) supplemented with 10% heat-inactivated FBS for 48 to 72 h in a humidified atmosphere of 5% CO2 and sub-cultured in fresh RPMI-1640 medium at an average density 2 × 10^5 cells per mL (Sharma et al. 2023).[30]
Human macrophage THP-1 cell line of 0.5 × 10^6 cells per mL seeded in RPMI-1640 medium (Sigma-Aldrich, USA) supplemented with 10% FBS (GIBCO) in presence of 5% CO2 at 37 °C in triplicate in 96 well culture plate. The cells were treated with two-fold serially diluted concentrations (100–3.125 μM) of the candidate molecules for 72 h. The IC50 was calculated using MTT assay (Sharma et al. 2023).[30]

[3] = test system: L. donovani promastigotes; assay: Dose-dependent anti-promastigote activity and determination of IC50 (MTT); type: cell-based; conditions: Leishmania donovani, 72 h, 3 days at 26 °C
Method: MTF was used as a standard antileishmanial drug control. The cell viability was evaluated (by MTT Assay) and the mean percentage viability was calculated as follows: Mean cell number of treated parasites/mean cell number of untreated parasites × 100. The 50 and 90% inhibitory concentration (IC50) i.e., the concentration of drugs that decreased the cell growth by 50 and 90% respectively, was determined by graphical extrapolation after plotting the graph of percentage viability vs. concentration of the drug.[31]
Parasite viability was not affected by DMSO (0.2%, data not shown) used as solvent control.[33]

L. donovani amastigotes = assay: Anti-amastigote assay in infected THP-1 macrophages (Giemsa); type: cell-based, Leishmania donovani; conditions: for IC50: infected THP-1 macrophages, 72 h
Method: To evaluate the anti-leishmanial effect of the compound T4 and T7 on intracellular L. donovani parasites, macrophage was infected with stationary -phase L. donovani for 6 h. The cells were then washed with saline to remove any non-internalised parasites. To assess the effect of compounds T4 and T7 on intracellular parasites at early stages of infection, macrophages were subsequently treated with T4 and T7 at concentrations of 100, 50, 25, 12.5, or 6.25 μM (refer to Table 3 and Fig. 7) for 6, 24, or 48 hours.
THP-1 cells (5 × 10^5 cells per mL) were cultivated in RPMI-1640 media (Roswell Park Memorial Institute 1640) (Sigma-Aldrich, USA), supplemented with 10% fetal calf serum and maintained at 37 °C with 5% CO2 using phorbol ester as the inducer. These cells were added on circular coverslips (1 × 10^6 cells per mL). Promastigotes of L. donovani were introduced at 1 : 20 ratio. Treatment of the samples was carried out at doses of 100, 50, 25, 12.5, 6.25 and 3.125 μM/72 h. After being taken off, the coverslips were stained with Giemsa. The rate of macrophage infection was then ascertained.

[4] = test system: L. donovani promastigotes; assay: Anti-leishmanial screening against L. donovani promastigotes at a single concentration (MTT); type: cell-based, Leishmania donovani; conditions: 72 h at 26 °C, MTT
Method: Each candidate was evaluated for its in vitro activity against reference strain (MHOM/IN/83/AG83) of extracellular promastigotes and intracellular amastigotes of L. donovani.
Promastigotes were routinely cultured at 26 °C in medium M199 supplemented with 10% heat inactivated fetal bovine serum (FBS, Gibco Laboratories, Mumbai, India), penicillin 100 (IU mL^−1), streptomycin (100 μg mL^−1). Log phase promastigotes were sub-cultured every 72–96 h, the inoculum being 2 × 10^6 cells per mL.[29]
The triazin hybrids series was evaluated for their antileishmanial ability against L. donovani promastigotes in vitro. Promastigotes of L. donovani (1× 10^6 cells per mL) in M199 medium were incubated at 26 °C for 72 h with each compound at a concentration of 100 μM. Miltefosine (MTF) was used as a reference drug, 0.2% DMSO as solvent control. Parasites with media alone were taken as control. Parasite viability was achieved by MTT assay after 72 h (Sharma et al. 2023).[30]

promastigote = test system: promastigote; set-up: method as in PMID 29702355; conditions: read-out: IC50 against promastigote; cited from earlier work
amastigote = test system: amastigote; set-up: method as in PMID 29702355; conditions: read-out: IC50 against amastigote; cited from earlier work

Structure (SMILES): CN(C)c1ccnc2cc(Cl)ccc12 [7-chloro-N, N-dimethylquinolin-4-amine]
selectivity index against the axenic amastigotes (L. amazonensis; L. amazonensis axenic amastigotes): 74.3
selectivity index against the promastigotes (L. amazonensis; L. amazonensis promastigotes): 86.4
selectivity index against the axenic amastigotes (L. infantum; L. infantum axenic amastigotes): 137.6
selectivity index against the promastigotes (L. infantum; L. infantum promastigotes): 154.6

melting point: 210 to 212 °C
IC50 [3]: 1.07 µM
IC50 (L. donovani amastigotes; Leishmania donovani, THP-1, 72 h): 5.18 µM
IC50 (L. donovani amastigotes): 7.19 µM
Structure (SMILES): COc1ccc(C(=O)CCSc2nnc(-c3ccccc3)c(-c3ccccc3)n2)cc1OC [T4, 1-(3,4-Dimethoxyphenyl)-3-((5,6-diphenyl-1,2,4-triazin-3-yl)thio)propan-1-one]
Cellular morphological alterations in promastigotes (in words) [1]: loss of flagella
Cytotoxicity on THP-1 human macrophages (in words) [2]: nontoxic; also recorded: no adverse effects; also recorded: Absence of adverse toxicity
Percentage reduction of parasites (amastigote) (L. donovani amastigotes; 6.25 μM): 66%
Percentage reduction of parasites (amastigote) (L. donovani amastigotes; 12.5 μM): 68.80%
Percentage reduction of parasites (amastigote) (L. donovani amastigotes; 25 μM): 70%
Percentage reduction of parasites (amastigote) (L. donovani amastigotes; 50 μM): 74%
Percentage reduction of parasites (amastigote) (L. donovani amastigotes; 100 μM): 78.0%
Inhibitory activity against amastigotes (in words) (L. donovani amastigotes; 100–6.25 μM, infected macrophages): good inhibitory activity; also recorded: capable of inhibiting the growth
% Inhibition of L. donovani promastigotes ([4]; 100 μM): 99.67%
inhibition at 100 µM ([4]; Leishmania donovani, 72 h): > 90%

Structure (SMILES): Clc1cc(Cl)ncn1 [compound 5]
IC50 (promastigote): < 25 µM
IC50 (amastigote): < 25 µM

Source: paper PMC11253633, “Robust leishmanicidal upshot of some new diphenyl triazine-based molecules” (RSC Advances, 2024)
